Like-named read-outs stand apart in the source and are kept apart here.
Columns and labels:
S. aureus A-9606 = assay: Therapeutic efficacy in mice experimentally infected with a beta-lactamase strain of Staphylococcus aureus (Table 3); type: in vivo; details: for ED50: Staphylococcus aureus, A9606, challenge 5 × 10^8, read-out: PD50/Treatment
Experimental: Treatment schedule: Drugs administered 0 and 2 hours postinfection.

[1] = system: β-lactamase-producing bacteria; assay: Protection of ceforanide and amoxicillin from destruction by β-lactamase-producing bacteria; details: in vitro and in vivo, in combination
Bacteroides species = assay: Anti-Bacteroides activity (MIC, agar dilution), alone and in combination with BL-P2013; type: cell-based
B. fragilis = assay: as above; type: cell-based
P. morganii = assay: Antibacterial activity (MIC); type: cell-based; details: Morganella morganii; strain A15153
B. thetaiotaomicron = assay: Anti-Bacteroides activity (MIC, agar dilution), alone and in combination with BL-P2013; type: cell-based
Experimental: *Minimum inhibitory concentration (MIC) determined by the agar dilution
method using 50X dilutions of 24 hour cultures as inocula dispensed by th
Steer's inoculator. Assay medium composed of Brucella Agar plus 5% laked
sheep blood and 10 mcg/ml vitamin K.

P. rettgeri = assay: Antibacterial activity (MIC); type: cell-based; details: Providencia rettgeri; strain A21203
E. coli = assay: Antibacterial activity (MIC); type: cell-based; details: Escherichia coli
β-lactamases = assay: Inhibition of β-lactamases; type: biochemical
P. vulgaris = assay: Antibacterial activity (MIC); type: cell-based; details: Proteus vulgaris; strain A21559
S. marcescens = assay: Antibacterial activity (MIC); type: cell-based; details: Serratia marcescens; strain A20019
[2] = Blood levels after oral administration to mice (Table 4); type: in vivo; details: mouse; for concentration at 0.5 h: 30 min; for concentration at 1 h: 60 min; for concentration at 2 h: 120 min
S. pyogenes = assay: Antibacterial activity (MIC); type: cell-based; details: Streptococcus pyogenes; strain A-9604
S. pneumoniae = assay: Antibacterial activity (MIC); type: cell-based; details: Streptococcus pneumoniae; strain A-9585
E. cloacae = assay: Antibacterial activity (MIC); type: cell-based; details: Enterobacter cloacae
P. aeruginosa = assay: Antibacterial activity (MIC); type: cell-based
S. faecalis = assay: Antibacterial activity (MIC); type: cell-based; details: Enterococcus faecalis; strain A20688
K. pneumoniae = assay: Antibacterial activity (MIC); type: cell-based
S. aureus = assay: Antibacterial activity (MIC); type: cell-based; details: Staphylococcus aureus
bacteria = assay: Antibacterial activity (statement); type: cell-based
P. mirabilis = assay: Antibacterial activity (MIC); type: cell-based; details: Proteus mirabilis; strain A-9900
[3] = system: β-lactamase producing strains of S. aureus; assay: animal or person; type: in vivo, mice; details: Staphylococcus aureus, in Mus musculus, po
Experimental: (§1) Drugs were administered orally at 0 and 2 hours postinfection.
(§2) Drugs were suspended in TCMC.

[4] = system: β-lactamase producing strains of E. coli; assay: animal or person; type: in vivo, mice; details: Escherichia coli, in Mus musculus, po
Experimental: as §1, §2

[5] = 100 mg/kg, oral 100 mg/kg, assay organism E. coli A-9675, read-out: Blood level
[6] = 100 mg/kg, oral 100 mg/kg, assay organism S. aureus A-9606, read-out: Blood level
[7] = 200 mg/kg, oral 200 mg/kg, assay organism S. aureus A-9606, read-out: Blood level

For `CC1(CCl)C(C(=O)O)N2C(=O)CC2S1(=O)=O` (stereo not drawn) [BL-P2013, Potassium 2β-Chloromethyl-2α-methylpenam-3α-carboxylate Sulfone], the PD50/Treatment (S. aureus A-9606; IM, challenge 7 × 10^8) was over 50 mg/kg, the ED50 (S. aureus A-9606; IM) was over 50 mg/kg and the ED50 (S. aureus A-9606; PO) was over 200 mg/kg. The “protection of ceforanide and amoxicillin from destruction” value [1] was “protected ceforanide and amoxicillin from destruction by β-lactamase-producing bacteria in vitro and in vivo”, the MIC (Bacteroides species; Bacteroides) was 63 µg/mL and the MIC (Bacteroides species; Bacteroides, strain A20929, β-lactamase +, read-out: MIC) was 32 µg/mL. It also gave an MIC (Bacteroides species; Bacteroides, strain A20930, β-lactamase +, read-out: MIC) of 125 µg/mL, an MIC (Bacteroides species; Bacteroides, strain A20931, β-lactamase +, read-out: MIC) of 32 µg/mL and an MIC (Bacteroides species; Bacteroides, strain A20934, β-lactamase +, read-out: MIC) of 32 µg/mL. The MIC (Bacteroides species; Bacteroides, strain A20935, β-lactamase -, read-out: MIC) was 125 µg/mL, the MIC (Bacteroides species; Bacteroides, strain A21959, β-lactamase +, read-out: MIC) was 32 µg/mL and the MIC (Bacteroides species; strain A20927-1, β-lactamase -) was 63 µg/mL. It also gave an MIC (Bacteroides species; strain A20933, β-lactamase +) of 63 µg/mL, an MIC (B. fragilis; strain A21875, β-lactamase +) of 63 µg/mL and an MIC (B. fragilis; strain A21916, β-lactamase +, read-out: MIC) of over 125 µg/mL. It also gave an MIC (B. fragilis; strain A22021, β-lactamase +, read-out: MIC) of 32 µg/mL, an MIC (B. fragilis; strain A22053, β-lactamase +) of 63 µg/mL and an MIC (B. fragilis; strain A22533, β-lactamase +, read-out: MIC) of 32 µg/mL. For the same molecule, the MIC (B. fragilis; strain A22534, β-lactamase +, read-out: MIC) was 125 µg/mL, the MIC (B. fragilis; strain A22535, β-lactamase +, read-out: MIC) was 125 µg/mL and the MIC (B. fragilis; strain A22693, β-lactamase +) was 63 µg/mL. The MIC (B. fragilis; strain A22694, β-lactamase +) was 63 µg/mL, the MIC (B. fragilis; strain A22695, β-lactamase +, read-out: MIC) was 32 µg/mL and the MIC (B. fragilis; strain A22696, β-lactamase +) was 63 µg/mL. It also gave an MIC (B. fragilis; strain A22697, β-lactamase +) of 63 µg/mL, an MIC (B. fragilis; strain A22792, β-lactamase +, read-out: MIC) of 32 µg/mL and an MIC (B. fragilis; strain A22793, β-lactamase +, read-out: MIC) of 32 µg/mL. It also gave an MIC (B. fragilis; strain A22794, β-lactamase +, read-out: MIC) of 32 µg/mL, an MIC (B. fragilis; strain A22795, β-lactamase +, read-out: MIC) of 32 µg/mL and an MIC (B. fragilis; strain A22797, β-lactamase +) of 63 µg/mL. For the same molecule, the MIC (B. fragilis; strain A22798, β-lactamase +) was 63 µg/mL, the MIC (P. morganii) was over 125 µg/mL and the MIC (B. thetaiotaomicron; Bacteroides thetaiotaomicron, strain A22277, β-lactamase +, read-out: MIC) was 63 µg/mL. For the same molecule, the MIC (B. thetaiotaomicron; strain A22279, β-lactamase +) was 63 µg/mL, the MIC (P. rettgeri) was over 125 µg/mL and the MIC (E. coli; strain A15119) was over 125 µg/mL. For the same molecule, the MIC (E. coli; strain A20341-1) was over 125 µg/mL, the β-lactamase inhibition (β-lactamases) was “inhibits β-lactamases” and the MIC (P. vulgaris) was over 125 µg/mL. The MIC (S. marcescens) was over 125 µg/mL, the concentration at […] ([2]; 100 mg/kg, oral 100 mg/kg, 15 min, assay organism E. coli A-9675, read-out: Blood level) was 4500 ng/mL and the concentration at […] ([2]; 100 mg/kg, oral 100 mg/kg, 15 min, assay organism S. aureus A-9606, read-out: Blood level) was 4600 ng/mL. For the same molecule, the concentration at 0.5 h [2, 5] was 5100 ng/mL, the concentration at 0.5 h [2, 6] was 4100 ng/mL and the concentration at 1 h [2, 6] was 3000 ng/mL. For the same molecule, the concentration at […] ([2]; 100 mg/kg, oral 100 mg/kg, 90 min, assay organism E. coli A-9675, read-out: Blood level) was 2300 ng/mL, the concentration at […] ([2]; 100 mg/kg, oral 100 mg/kg, 90 min, assay organism S. aureus A-9606, read-out: Blood level) was under 2600 ng/mL and the concentration at 2 h [2, 5] was 1500 ng/mL. The concentration at 2 h [2, 6] was under 2600 ng/mL, the concentration at […] ([2]; 100 mg/kg, oral 100 mg/kg, 150 min, assay organism S. aureus A-9606, read-out: Blood level) was under 2600 ng/mL and the half-life ([2]; 100 mg/kg, oral 100 mg/kg, assay organism E. coli A-9675) was 50 min. It also gave a concentration at […] ([2]; 200 mg/kg, oral 200 mg/kg, 15 min, assay organism S. aureus A-9606, read-out: Blood level) of 7400 ng/mL, a concentration at 0.5 h [2, 7] of 9800 ng/mL and a concentration at 1 h [2, 7] of 7100 ng/mL. It also gave a concentration at […] ([2]; 200 mg/kg, oral 200 mg/kg, 90 min, assay organism S. aureus A-9606, read-out: Blood level) of 4100 ng/mL, a concentration at 2 h [2, 7] of 2800 ng/mL and a concentration at […] ([2]; 200 mg/kg, oral 200 mg/kg, 150 min, assay organism S. aureus A-9606, read-out: Blood level) of under 2600 ng/mL. It also gave a half-life ([2]; 200 mg/kg, oral 200 mg/kg, assay organism S. aureus A-9606) of 50 min, an MIC (S. pyogenes) of 63 µg/mL and an MIC (S. pneumoniae) of 16 µg/mL. It also gave an MIC (E. cloacae; strain A-9656) of over 125 µg/mL, an MIC (E. cloacae; strain A-9659) of over 125 µg/mL and an MIC (P. aeruginosa; Pseudomonas aeruginosa, strain A-9843A, read-out: MIC) of over 125 µg/mL. It also gave an MIC (P. aeruginosa; strain A21213) of over 125 µg/mL, an MIC (S. faecalis) of over 125 µg/mL and an MIC (K. pneumoniae; Klebsiella pneumoniae, strain A15130, read-out: MIC) of over 125 µg/mL. It also gave an MIC (K. pneumoniae; strain A20468) of over 125 µg/mL, an MIC (S. aureus; strain A15097, Meth-Res) of over 125 µg/mL and an MIC (S. aureus; strain A-9537) of over 125 µg/mL. The MIC (S. aureus; strain A-9537, + 50% serum) was over 125 µg/mL, the MIC (S. aureus; strain A-9606, Pen-Res) was over 125 µg/mL and the antibacterial activity (bacteria) was “at best a very weak antibacterial agent”. The MIC (P. mirabilis) was over 125 µg/mL, the ED50 ([3]; read-out: PD50/Treatment, oral, S. aureus A9606, challenge 2 × 10^9) was over 200 mg/kg and the ED50 ([3]; read-out: PD50/Treatment, oral, S. aureus A9606, challenge 7 × 10^8) was over 200 mg/kg. For the same molecule, the ED50 ([3]; read-out: PD50/Treatment, oral, S. aureus A15091, challenge 4 × 10^8) was over 200 mg/kg, the ED50 ([3]; read-out: PD50/Treatment, oral, S. aureus A15091, challenge 5 × 10^8) was over 200 mg/kg and the ED50 ([3]; read-out: PD50/Treatment, oral, S. aureus A20379, challenge 5 × 10^8) was over 200 mg/kg. The ED50 ([3]; read-out: PD50/Treatment, oral, S. aureus A20379, challenge 6 × 10^8) was 174 mg/kg, the ED50 ([4]; read-out: PD50/Treatment, oral, E. coli A9675, challenge 6 × 10^5) was over 200 mg/kg and the ED50 ([4]; read-out: PD50/Treatment, oral, E. coli A9675, challenge 7 × 10^5) was over 100 mg/kg. For the same molecule, the ED50 ([4]; read-out: PD50/Treatment, oral, E. coli A9675, challenge 8 × 10^5) was over 200 mg/kg, the ED50 ([4]; read-out: PD50/Treatment, oral, E. coli A20649, challenge 5 × 10^5) was over 200 mg/kg and the ED50 ([4]; read-out: PD50/Treatment, oral, E. coli A20649, challenge 6 × 10^5) was over 200 mg/kg. It also gave an ED50 ([4]; read-out: PD50/Treatment, oral, E. coli A21223, challenge 6 × 10^5) of over 200 mg/kg, an ED50 ([4]; read-out: PD50/Treatment, oral, E. coli A21223, challenge 7 × 10^5 (first line)) of over 200 mg/kg and an ED50 ([4]; read-out: PD50/Treatment, oral, E. coli A21223, challenge 7 × 10^5 (third line)) of over 200 mg/kg.

Source: patent US4340539A, “Derivatives of 6-bromo penicillanic acid” (priority 1980, dated 1982)
